One may read the IC50 as the concentration needed to halve the response being measured. A lower IC50 goes with inhibition by little substance. For orientation: EC50 means the concentration needed to bring the measured effect to its halfway point. Lower therefore signals a more potent agent. As a reminder, the inhibition is the drop in the measured response relative to a control, in per cent.

Assay [1] addresses T1, GSK3B (Homo sapiens, UniProt P49841). Briefly: biochemical. To be noted: read-out: % of control remaining.
The target in assay [2] is T2, GSK3A (Homo sapiens, UniProt P49840). Briefly: HotSpot radiometric […]-ATP kinase assay. It is filed as biochemical.
Target sequence in this assay (P49840 2-483): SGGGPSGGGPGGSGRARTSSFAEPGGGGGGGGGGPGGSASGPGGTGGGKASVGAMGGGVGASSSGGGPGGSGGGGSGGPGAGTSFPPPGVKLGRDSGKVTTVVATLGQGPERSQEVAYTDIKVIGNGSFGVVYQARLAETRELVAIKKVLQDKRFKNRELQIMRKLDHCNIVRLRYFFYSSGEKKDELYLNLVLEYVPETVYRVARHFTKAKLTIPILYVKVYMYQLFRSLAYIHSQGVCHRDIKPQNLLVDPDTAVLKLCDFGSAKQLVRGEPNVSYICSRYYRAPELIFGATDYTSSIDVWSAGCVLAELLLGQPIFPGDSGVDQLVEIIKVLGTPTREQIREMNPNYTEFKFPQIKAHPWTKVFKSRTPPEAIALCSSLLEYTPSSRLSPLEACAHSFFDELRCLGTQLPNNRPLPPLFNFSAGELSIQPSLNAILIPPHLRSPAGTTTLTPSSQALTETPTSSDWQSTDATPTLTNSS
In assay [3] the target is T3, PLK2 (Homo sapiens, UniProt Q9NYY3). Briefly: HotSpot radiometric […]-ATP kinase assay. The format is biochemical.
T3 sequence (Q9NYY3 whole entry): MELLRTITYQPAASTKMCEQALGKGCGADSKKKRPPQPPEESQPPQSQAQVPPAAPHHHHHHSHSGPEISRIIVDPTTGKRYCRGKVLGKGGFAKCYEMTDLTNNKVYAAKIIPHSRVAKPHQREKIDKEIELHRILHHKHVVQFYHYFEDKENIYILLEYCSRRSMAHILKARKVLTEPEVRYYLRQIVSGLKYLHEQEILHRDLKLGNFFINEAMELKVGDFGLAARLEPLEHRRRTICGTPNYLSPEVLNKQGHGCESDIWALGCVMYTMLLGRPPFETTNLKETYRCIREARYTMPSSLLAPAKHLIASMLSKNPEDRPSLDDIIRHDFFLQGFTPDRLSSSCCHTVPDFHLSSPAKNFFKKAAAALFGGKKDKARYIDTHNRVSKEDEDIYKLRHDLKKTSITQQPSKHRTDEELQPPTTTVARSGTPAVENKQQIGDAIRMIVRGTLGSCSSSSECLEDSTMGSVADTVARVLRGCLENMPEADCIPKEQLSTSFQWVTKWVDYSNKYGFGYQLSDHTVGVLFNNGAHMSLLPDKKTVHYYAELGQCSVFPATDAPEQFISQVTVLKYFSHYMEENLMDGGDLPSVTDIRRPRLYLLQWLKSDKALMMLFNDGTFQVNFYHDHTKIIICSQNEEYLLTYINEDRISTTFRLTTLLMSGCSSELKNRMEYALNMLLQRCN
Assay [4] concerns the target T1, GSK3B. The experiment in a line: HotSpot radiometric […]-ATP kinase assay. It is filed as biochemical.
In assay [5] the target is GSK3A (NanoLuc fusion, HEK293 cells) (Homo sapiens, UniProt P49840). Briefly: NanoBRET target engagement, tracer displacement, intact cells. The format is cell-based.
Sequence of GSK3A (NanoLuc fusion, HEK293 cells) (P49840 2-483): as the sequence (P49840 2-483) above
In assay [6] the target is T2, GSK3A. The experiment in a line: biochemical. The following applies: read-out: % of control remaining.
Target sequence in this assay (P49840 whole entry): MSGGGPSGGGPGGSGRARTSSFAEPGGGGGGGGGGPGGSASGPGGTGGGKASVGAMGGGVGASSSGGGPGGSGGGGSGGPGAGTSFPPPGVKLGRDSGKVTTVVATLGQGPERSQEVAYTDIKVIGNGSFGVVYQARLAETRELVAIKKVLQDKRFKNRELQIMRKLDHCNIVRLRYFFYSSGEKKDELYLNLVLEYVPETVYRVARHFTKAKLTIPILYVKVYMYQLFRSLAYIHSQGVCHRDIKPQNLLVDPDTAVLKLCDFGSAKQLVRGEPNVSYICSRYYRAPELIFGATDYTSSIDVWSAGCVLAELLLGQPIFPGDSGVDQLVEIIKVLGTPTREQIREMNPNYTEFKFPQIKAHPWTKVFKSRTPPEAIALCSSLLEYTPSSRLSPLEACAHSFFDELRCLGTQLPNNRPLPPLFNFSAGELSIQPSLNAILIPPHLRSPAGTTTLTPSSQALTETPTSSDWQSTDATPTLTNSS
Assay [7] has as its target T3, PLK2. Briefly: biochemical. The following applies: read-out: % of control remaining.
The target in the next assay is PARP2 (Homo sapiens, UniProt Q9UGN5). Briefly: BPS PARP assay kit, biotin-NAD+ luminescence. The following applies: read-out: % inhibition at 10 μM. It is filed as biochemical.
Sequence of PARP2 (Q9UGN5 whole entry): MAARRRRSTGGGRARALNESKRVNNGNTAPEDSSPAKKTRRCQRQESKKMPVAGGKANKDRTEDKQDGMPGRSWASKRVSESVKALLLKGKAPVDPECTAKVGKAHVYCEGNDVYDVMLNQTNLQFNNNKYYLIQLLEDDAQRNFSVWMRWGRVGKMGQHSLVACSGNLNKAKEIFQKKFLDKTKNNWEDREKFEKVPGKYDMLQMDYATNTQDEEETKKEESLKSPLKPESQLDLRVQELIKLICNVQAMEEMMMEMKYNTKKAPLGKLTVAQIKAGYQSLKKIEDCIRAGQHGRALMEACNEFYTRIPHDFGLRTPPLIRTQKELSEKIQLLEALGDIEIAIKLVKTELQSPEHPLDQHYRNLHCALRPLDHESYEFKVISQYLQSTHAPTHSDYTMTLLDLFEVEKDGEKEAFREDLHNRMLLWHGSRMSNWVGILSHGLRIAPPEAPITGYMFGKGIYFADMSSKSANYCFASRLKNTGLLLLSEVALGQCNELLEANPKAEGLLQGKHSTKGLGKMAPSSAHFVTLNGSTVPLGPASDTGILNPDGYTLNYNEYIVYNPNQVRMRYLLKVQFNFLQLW
Another assay concerns the target PARP1 (Homo sapiens, UniProt P09874). The experiment in a line: BPS PARP assay kit, biotin-NAD+ luminescence. The format is biochemical. The following applies: read-out: % inhibition at 10 μM.
Assay [8] addresses PLK2 (NanoLuc fusion, HEK293 cells) (Homo sapiens, UniProt Q9NYY3). Briefly: NanoBRET target engagement, tracer displacement, intact cells. It is filed as cell-based. On the technique in general: In BRET a luciferase serves as donor, and the signal depends on an acceptor being close.
Another assay concerns the target CSNK1E (Homo sapiens, UniProt P49674). Briefly: biochemical. The following applies: read-out: % of control remaining.
Assay [9] deals with T2, GSK3A. The experiment in a line: HotSpot radiometric […]-ATP kinase assay. The following applies: remaining activity, mean of two replicates. The format is biochemical.
Target sequence in this assay (P49840 2-483): as the sequence (P49840 2-483) above
In assay [10] the target is T3, PLK2. Briefly: HotSpot radiometric […]-ATP kinase assay. It is filed as biochemical. To be noted: remaining activity, mean of two replicates.
In assay [11] the target is T1, GSK3B. The experiment in a line: HotSpot radiometric […]-ATP kinase assay. The format is biochemical. The following applies: remaining activity, mean of two replicates.

T1 sequence (P49841 whole entry): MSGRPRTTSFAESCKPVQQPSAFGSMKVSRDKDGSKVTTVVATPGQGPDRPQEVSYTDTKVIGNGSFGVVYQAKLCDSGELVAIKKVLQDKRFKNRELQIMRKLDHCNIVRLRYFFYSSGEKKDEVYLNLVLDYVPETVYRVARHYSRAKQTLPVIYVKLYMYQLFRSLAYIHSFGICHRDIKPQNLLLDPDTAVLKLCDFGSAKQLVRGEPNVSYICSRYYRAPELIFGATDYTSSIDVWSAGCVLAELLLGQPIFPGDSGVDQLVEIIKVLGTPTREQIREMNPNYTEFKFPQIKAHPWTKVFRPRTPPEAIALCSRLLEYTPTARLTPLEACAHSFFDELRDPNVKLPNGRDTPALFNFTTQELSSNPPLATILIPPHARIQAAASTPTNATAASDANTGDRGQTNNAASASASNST
Sequence of CSNK1E (P49674 whole entry): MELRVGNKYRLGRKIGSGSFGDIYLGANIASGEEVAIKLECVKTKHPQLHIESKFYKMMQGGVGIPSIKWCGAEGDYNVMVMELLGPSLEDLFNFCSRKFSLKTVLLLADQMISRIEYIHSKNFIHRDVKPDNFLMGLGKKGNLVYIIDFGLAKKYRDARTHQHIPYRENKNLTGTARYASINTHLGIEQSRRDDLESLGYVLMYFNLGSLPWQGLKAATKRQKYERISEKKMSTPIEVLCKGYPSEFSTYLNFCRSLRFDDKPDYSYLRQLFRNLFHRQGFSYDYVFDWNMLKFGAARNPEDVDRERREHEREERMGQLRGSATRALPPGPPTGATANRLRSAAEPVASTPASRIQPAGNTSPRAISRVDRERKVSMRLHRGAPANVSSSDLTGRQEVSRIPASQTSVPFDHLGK
Sequence of PLK2 (NanoLuc fusion, HEK293 cells) (Q9NYY3 whole entry, the tested form may be a part): as the sequence (Q9NYY3 whole entry) above
Sequence of PARP1 (P09874 2-1014): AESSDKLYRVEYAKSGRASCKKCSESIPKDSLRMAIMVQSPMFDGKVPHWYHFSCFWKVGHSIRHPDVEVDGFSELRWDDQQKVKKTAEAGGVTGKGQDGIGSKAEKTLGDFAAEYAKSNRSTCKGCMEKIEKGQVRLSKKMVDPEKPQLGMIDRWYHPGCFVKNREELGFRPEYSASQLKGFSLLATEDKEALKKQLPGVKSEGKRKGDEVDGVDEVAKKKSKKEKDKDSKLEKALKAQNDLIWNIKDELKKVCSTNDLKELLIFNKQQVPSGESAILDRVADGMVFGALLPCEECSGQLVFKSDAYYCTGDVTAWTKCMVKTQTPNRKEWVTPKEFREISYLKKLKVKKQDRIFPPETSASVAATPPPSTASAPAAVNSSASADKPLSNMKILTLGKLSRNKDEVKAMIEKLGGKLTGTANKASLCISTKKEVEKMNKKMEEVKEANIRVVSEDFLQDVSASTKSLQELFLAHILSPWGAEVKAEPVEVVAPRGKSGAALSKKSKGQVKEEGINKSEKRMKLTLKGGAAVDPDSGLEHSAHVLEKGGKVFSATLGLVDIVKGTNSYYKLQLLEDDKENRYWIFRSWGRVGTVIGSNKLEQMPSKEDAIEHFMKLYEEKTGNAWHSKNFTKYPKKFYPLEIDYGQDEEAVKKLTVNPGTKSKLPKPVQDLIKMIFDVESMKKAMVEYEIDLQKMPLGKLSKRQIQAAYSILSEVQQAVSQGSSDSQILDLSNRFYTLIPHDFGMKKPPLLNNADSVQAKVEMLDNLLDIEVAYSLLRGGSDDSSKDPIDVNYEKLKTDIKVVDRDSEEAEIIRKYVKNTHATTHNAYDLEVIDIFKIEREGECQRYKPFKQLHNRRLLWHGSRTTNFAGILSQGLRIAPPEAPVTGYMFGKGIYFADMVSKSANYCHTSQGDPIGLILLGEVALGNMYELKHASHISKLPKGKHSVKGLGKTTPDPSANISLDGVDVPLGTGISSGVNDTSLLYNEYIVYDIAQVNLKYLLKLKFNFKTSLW

For `O=C(O)c1ccc(-c2[nH]c3cc(F)cc4c3c2CCNC4=O)cc1` [M324], the remaining activity at 1 µM was 63.1% at GSK3B [1], 34.4% at GSK3A [6], 40.7% at PLK2 [7] and 102% at CSNK1E. Also, the IC50 was 0.579 µM on GSK3A [2], 0.591 µM against PLK2 [3] and 2 µM on GSK3B [4]. Also, the EC50 in assay [5] turned out to be 15 µM; in [8], 5.08 µM. Moreover, the inhibition at 10 µM at PARP2 and at PARP1 was 100% in each case.

Turning to `CNCc1ccc(-c2[nH]c3cc(F)cc4c3c2CCNC4=O)cc1` [rucaparib], the results for the “Enzyme activity (%) at 1 μM” value on GSK3A [9], on PLK2 [10] and on GSK3B [11] were 74.15%, 88.95% and 35.38%, respectively. For the same compound, on CSNK1E, the remaining activity at 1 µM is 103%.

Source of the values: article doi:10.1101/2022.11.22.517505v1 (biorxiv, 2022).
